According to patent US11377501B2, “Peptide having high affinity for PD-L1 protein and use thereof” (priority 2017, dated 2022):
Entries after “also recorded” stand apart in the source; their conditions may differ. Where no end group is shown, it is not given here.

Tests used:
[1] = test system: mouse tumor; test: Effect of PPLC peptide on tumor volume and survival in mouse tumor model; format: in vivo; details: subcutaneous tumors in female Balb/c mice
Description: The experimental animals were divided into two groups: PBS group and PPLC group. Tumors were injected subcutaneously into 6 weeks old female Balb/c mice. Two weeks later, when the tumor size reached 100 mm^3, PPLC drug treatment was performed. The size of the mouse tumor was measured daily and the change was recorded.
The experimental animals were divided into two groups: PBS group and PPLC group. Tumors were injected subcutaneously into female Balb/c mice. Two weeks later, when the tumor size reached 100 mm^3, PPLC drug treatment was performed. The size of the mouse tumor was measured daily and the change was recorded.

[2] = biological target: T1, recombinant human PD-L1 protein expressed on CHO cell surface (Homo sapiens, UniProt Q9NZQ7); test: Binding of FITC-labeled PPLC peptide to PD-L1 expressed on CHO cell surface (flow cytometry, fluorescence confocal); format: cell-based; details: CHO cells transfected with human PD-L1, FITC-labeled peptide, flow cytometry and confocal
T1 construct: expressed in transfected cells; host or cells: CHO cell line
T1 sequence (Q9NZQ7 19-290): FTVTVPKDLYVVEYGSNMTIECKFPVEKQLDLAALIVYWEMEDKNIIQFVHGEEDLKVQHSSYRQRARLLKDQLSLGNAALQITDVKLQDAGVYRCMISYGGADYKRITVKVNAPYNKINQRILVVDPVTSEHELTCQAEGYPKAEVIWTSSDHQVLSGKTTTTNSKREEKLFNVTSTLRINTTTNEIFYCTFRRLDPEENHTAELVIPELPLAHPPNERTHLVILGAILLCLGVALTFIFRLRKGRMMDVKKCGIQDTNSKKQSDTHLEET
Description: The recombinant plasmid expressing recombinant human PD-L1 protein was transfected into CHO cell line and incubated for 36 hours. After incubation, anti-PD-L1 monoclonal antibody or PPLC peptide labeled with FITC was added and incubated at 4° C. for 30 minutes. After incubation, flow cytometry was performed (FIG. 3). After transfection of the plasmid, the cells were further cultured for 36 hours, and then the PPLC peptide labeled with FITC was added and incubated at 37° C. for 30 minutes. After incubation, fluorescence confocal detection was performed (FIG. 4).
The recombinant plasmid expressing recombinant human PD-L1 protein was transfected into CHO cell line and incubated for 36 hours. After incubation, anti-PD-L1 monoclonal antibody or PPLC peptide labeled with FITC was added, and incubated at 4° C. for 30 minutes. After incubation, flow cytometry was performed. After transfection of the plasmid, the cells were further cultured for 36 hours, and then the PPLC peptide labeled with FITC was added, and incubated at 37° C. for 30 minutes. After incubation, fluorescence confocal detection was performed.

[3] = biological target: PD-1/PD-L1 (Homo sapiens, UniProt Q9NZQ7); test: Competitive binding ELISA between PPLC peptide and PD-1 to PD-L1 protein; details: 2 μg/ml coated PD-L1, 1 μg/ml PD-1 protein
PD-1/PD-L1, sequence (Q9NZQ7 19-238 limits assumed): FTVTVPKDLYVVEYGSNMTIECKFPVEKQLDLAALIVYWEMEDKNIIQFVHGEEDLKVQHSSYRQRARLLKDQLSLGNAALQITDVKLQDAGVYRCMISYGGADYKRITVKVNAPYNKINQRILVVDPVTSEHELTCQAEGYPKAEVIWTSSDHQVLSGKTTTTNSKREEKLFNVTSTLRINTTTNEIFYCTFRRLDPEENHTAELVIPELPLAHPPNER
Description: A 96-well ELISA plate was coated with 2 μg/ml PD-L1 protein at 4° C. overnight. Different concentrations of PPLC peptide and 1 μg/ml PD-1 protein were mixed and incubated together. After incubation, rabbit anti-human PD-1 monoclonal antibody was added as primary antibody, and then HRP-conjugated goat anti-rabbit IgG monoclonal antibody was added as secondary antibody. After ABTS color development, the OD value at 410 nm was measured using a M5 microplate reader, and GraphPad Prism 6 was used for plotting and analysis.
A 96-well ELISA plate was coated with 2 μg/ml PD-L1 protein at 4° C. overnight. Different concentrations of PPLC peptide and 1 μg/ml of PD-1 protein were mixed and incubated together. After incubation, rabbit anti-human PD-1 monoclonal antibody was added as primary antibody, and then HRP-conjugated goat anti-rabbit IgG monoclonal antibody was added as secondary antibody. After ABTS color development, the OD value at 410 nm was measured using a M5 microplate reader, and GraphPad Prism 6 was used for plotting and analysis.

## VSVSHFQKVWVV [PPLC]
[1]; treatment from tumor size 100 mm^3, versus PBS group
  growth rate of mouse tumor / tumor size: can significantly reduce the growth rate of mouse tumor; also recorded: significantly smaller than that of the control group
[1]; versus PBS group
  survival time of mice: prolong the survival time of mice
[2]
  binding to PD-L1 protein expressed on the cell surface: can efficiently bind to the PD-L1 protein expressed on the cell surface; also recorded: has a high affinity for PD-L1 expressed on the surface of CHO cells
[3]
  blocking of the binding of PD-1/PD-L1: can effectively block the binding of PD-1/PD-L1
